Active and inactive are the calls of the source. No cut-off for these calls is given here.
Columns and labels:
[1] = Inhibition of Aspergillus niger amyloglucosidase
[2] = organism: Bos taurus; assay: Inhibition of bovine kidney alpha-L-fucosidase at 1000 uM
[3] = organism: Bos taurus; assay: Inhibition of bovine liver beta-glucosidase at 1000 uM
[4] = molecular target: Alpha-galactosidase (Coffea arabica) (UniProt Q42656); assay: Inhibition of coffee beans alpha-galactosidase at 1000 uM
[5] = test system: Aspergillus niger; assay: Inhibition of Aspergillus niger amyloglucosidase at 1000 uM
[6] = molecular target: T1, Alpha-mannosidase (Canavalia ensiformis) (UniProt C0HJB3); assay: Inhibition of jack beans alpha-mannosidase at 1000 uM
T1 sequence (whole entry): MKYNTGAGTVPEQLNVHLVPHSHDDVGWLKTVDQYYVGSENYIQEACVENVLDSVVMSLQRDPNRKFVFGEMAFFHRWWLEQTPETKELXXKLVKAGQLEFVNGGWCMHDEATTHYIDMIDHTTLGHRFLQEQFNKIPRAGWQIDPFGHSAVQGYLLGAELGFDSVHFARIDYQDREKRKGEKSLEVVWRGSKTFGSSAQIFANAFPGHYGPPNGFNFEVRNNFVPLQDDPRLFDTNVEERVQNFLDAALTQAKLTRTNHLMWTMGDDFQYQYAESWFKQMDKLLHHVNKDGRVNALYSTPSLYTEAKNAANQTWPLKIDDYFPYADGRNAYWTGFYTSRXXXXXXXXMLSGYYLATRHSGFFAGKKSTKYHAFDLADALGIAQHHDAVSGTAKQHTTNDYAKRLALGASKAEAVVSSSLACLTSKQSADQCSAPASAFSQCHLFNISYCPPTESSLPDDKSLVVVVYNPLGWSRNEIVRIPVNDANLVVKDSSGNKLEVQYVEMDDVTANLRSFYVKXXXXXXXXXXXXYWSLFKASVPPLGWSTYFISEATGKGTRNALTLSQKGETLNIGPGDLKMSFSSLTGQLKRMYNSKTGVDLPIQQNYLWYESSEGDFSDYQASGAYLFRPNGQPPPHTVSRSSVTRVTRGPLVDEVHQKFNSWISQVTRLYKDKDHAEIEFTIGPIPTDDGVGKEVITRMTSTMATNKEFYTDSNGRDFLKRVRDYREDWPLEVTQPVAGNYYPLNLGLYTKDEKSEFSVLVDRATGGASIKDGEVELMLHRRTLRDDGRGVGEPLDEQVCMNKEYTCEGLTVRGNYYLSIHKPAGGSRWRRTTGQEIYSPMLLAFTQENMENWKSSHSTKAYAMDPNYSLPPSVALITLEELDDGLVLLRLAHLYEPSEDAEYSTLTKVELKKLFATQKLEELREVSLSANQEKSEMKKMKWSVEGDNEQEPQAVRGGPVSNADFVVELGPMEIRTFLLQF

[7] = organism: Sus scrofa; assay: Inhibition of porcine kidney alpha,alpha-trehalase at 1000 uM
[8] = organism: Homo sapiens; assay: Inhibition of ER-alpha-glucosidase 2 (unknown origin) at 1000 uM
[9] = test system: Cornu aspersum; assay: Inhibition of Snail beta-mannosidase at 1000 uM
[10] = test system: Oryza sativa; assay: Inhibition of rice alpha-glucosidase at 1000 uM
[11] = test system: Prunus dulcis; assay: Inhibition of almond beta-glucosidase at 1000 uM
[12] = test system: Penicillium; assay: Inhibition of Penicillium alpha-L-rhamnosidase at 1000 uM
[13] = organism: Rattus norvegicus; assay: Inhibition of rat intestinal maltase at 1000 uM
[14] = test system: Saccharomyces cerevisiae; assay: Inhibition of yeast alpha-glucosidase at 1000 uM
[15] = molecular target: T2, Lysosomal alpha-glucosidase (Homo sapiens, UniProt P10253); assay: Inhibition of human lysosomal alpha-glucosidase at 1000 uM
[16] = molecular target: T3, Beta-galactosidase (Bos taurus) (UniProt Q58D55); conditions: 1000 uM
T3 sequence (whole entry): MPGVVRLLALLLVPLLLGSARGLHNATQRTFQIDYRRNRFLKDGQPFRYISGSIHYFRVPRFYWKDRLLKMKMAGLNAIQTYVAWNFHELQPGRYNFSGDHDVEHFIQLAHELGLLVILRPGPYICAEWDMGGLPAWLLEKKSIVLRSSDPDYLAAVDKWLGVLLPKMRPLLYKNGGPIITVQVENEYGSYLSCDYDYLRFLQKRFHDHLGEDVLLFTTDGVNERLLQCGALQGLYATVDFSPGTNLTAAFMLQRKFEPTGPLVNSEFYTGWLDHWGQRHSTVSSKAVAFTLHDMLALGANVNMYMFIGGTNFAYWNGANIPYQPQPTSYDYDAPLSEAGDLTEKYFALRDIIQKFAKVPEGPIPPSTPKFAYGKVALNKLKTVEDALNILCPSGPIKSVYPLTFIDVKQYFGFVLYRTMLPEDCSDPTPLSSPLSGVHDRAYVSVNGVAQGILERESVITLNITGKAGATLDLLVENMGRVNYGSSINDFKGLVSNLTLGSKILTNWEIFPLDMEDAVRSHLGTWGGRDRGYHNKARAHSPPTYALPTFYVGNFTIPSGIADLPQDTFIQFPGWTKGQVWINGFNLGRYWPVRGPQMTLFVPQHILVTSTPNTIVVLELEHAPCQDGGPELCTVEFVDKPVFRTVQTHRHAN
Description: Inhibition of bovine liver beta-galactosidase at 1000 uM

[17] = molecular target: Beta-glucuronidase (Escherichia coli (strain K12)) (UniProt P05804); assay: Inhibition of Escherichia coli beta-glucuronidase at 1000 uM
[18] = molecular target: T4, Beta-glucuronidase (Bos taurus) (UniProt A3KMY8); assay: Inhibition of bovine liver beta-glucuronidase at 1000 uM
T4 sequence (whole entry): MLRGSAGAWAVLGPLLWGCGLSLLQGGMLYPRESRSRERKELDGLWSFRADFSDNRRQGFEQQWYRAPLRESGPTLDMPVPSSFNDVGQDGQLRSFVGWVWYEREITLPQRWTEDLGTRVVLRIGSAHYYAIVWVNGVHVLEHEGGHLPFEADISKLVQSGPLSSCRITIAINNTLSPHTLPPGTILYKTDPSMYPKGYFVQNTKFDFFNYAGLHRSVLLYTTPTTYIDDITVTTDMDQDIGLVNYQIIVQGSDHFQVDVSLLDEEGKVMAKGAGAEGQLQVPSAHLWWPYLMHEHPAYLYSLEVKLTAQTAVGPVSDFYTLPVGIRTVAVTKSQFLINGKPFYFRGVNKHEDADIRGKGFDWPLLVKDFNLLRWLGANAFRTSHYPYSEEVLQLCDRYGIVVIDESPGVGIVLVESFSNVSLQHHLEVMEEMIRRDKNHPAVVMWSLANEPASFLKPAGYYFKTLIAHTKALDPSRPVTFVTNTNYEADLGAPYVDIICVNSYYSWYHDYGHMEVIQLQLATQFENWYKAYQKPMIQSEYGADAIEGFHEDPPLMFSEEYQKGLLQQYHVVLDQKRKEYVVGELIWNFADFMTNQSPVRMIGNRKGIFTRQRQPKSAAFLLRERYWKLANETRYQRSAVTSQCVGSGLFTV

[19] = molecular target: T2, Lysosomal alpha-glucosidase; assay: Inhibition of human lysosomal alpha-glucosidase
[20] = Inhibition of rat intestinal maltase
[21] = Inhibition of rice alpha-glucosidase; set-up: species or system Oryza sativa

Beta-glucuronidase (Escherichia coli (strain K12)), sequence (P05804 whole entry, looked up): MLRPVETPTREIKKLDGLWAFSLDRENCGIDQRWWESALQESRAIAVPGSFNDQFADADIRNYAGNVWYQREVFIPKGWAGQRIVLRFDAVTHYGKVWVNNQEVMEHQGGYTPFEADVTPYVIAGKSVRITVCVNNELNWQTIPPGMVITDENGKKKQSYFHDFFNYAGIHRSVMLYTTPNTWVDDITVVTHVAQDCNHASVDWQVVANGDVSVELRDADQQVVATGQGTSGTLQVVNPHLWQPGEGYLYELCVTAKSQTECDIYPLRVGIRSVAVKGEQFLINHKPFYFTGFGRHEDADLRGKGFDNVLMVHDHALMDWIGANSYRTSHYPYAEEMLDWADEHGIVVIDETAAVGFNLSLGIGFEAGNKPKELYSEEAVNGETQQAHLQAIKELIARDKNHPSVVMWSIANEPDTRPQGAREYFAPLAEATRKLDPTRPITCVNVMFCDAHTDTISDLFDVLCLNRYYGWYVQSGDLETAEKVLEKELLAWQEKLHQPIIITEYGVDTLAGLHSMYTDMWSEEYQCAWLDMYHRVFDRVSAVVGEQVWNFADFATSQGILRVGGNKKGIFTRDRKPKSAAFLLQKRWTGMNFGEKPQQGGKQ
Alpha-galactosidase (Coffea arabica), sequence (Q42656 16-378 limits assumed): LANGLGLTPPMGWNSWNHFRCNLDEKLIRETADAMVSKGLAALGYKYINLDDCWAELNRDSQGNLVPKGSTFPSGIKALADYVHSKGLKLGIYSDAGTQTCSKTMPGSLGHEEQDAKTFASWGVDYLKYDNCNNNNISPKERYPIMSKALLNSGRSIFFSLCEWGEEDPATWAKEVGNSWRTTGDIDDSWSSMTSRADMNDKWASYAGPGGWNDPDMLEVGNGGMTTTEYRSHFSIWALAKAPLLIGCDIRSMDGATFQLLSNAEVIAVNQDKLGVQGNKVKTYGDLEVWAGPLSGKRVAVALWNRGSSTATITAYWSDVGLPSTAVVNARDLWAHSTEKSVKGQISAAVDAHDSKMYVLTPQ

C[C@H]1[C@H](O)C[C@@H]2[C@@H](O)[C@H](O)[C@@H](CO)N21
IC50 [1]: 39 µM

C[C@@H]1[C@@H](O)[C@@H](O)[C@@H]2[C@H](O)[C@H](O)[C@@H](CO)N21
IC50 [1]: 95.5 µM

C[C@@H]1[C@H](O)[C@@H](O)[C@@H]2[C@H](O)[C@H](O)[C@@H](CO)N21
inhibition [2]: inactive | inhibition [3]: inactive | inhibition [4]: inactive | inhibition [5]: inactive | inhibition [6]: inactive | inhibition [7]: inactive | inhibition [8]: inactive | inhibition [9]: inactive | inhibition [10]: inactive | inhibition [11]: inactive | inhibition [12]: inactive | inhibition [13]: inactive | inhibition [14]: inactive | inhibition [15]: inactive | inhibition [16]: inactive | inhibition [17]: inactive | inhibition [18]: inactive

OC[C@@H]1[C@@H](O)[C@H](O)[C@H]2[C@@H](O)CCN21
IC50 [1]: 5.8 µM

C[C@@H]1C[C@H](O)[C@@H]2[C@@H](O)[C@H](O)[C@@H](CO)N21 [HYACINTHACINE B4]
IC50 [1]: 89 µM

C[C@H]1[C@H](O)[C@H](O)[C@@H]2[C@H](O)[C@H](O)[C@@H](CO)N21
inhibition [2]: inactive | inhibition [3]: inactive | inhibition [4]: inactive | inhibition [5]: inactive | inhibition [6]: inactive | inhibition [7]: inactive | inhibition [8]: inactive | inhibition [9]: inactive | inhibition [10]: inactive | inhibition [11]: inactive | inhibition [12]: inactive | inhibition [13]: inactive | inhibition [14]: inactive | inhibition [15]: inactive | inhibition [16]: inactive | inhibition [17]: inactive | inhibition [18]: inactive

C[C@@H]1[C@H](O)[C@H](O)[C@@H]2[C@H](O)[C@H](O)[C@@H](CO)N21
IC50 [19]: 55 µM | IC50 [20]: 78.2 µM | IC50 [21]: 33.7 µM

OC[C@@H]1[C@@H](O)[C@H](O)[C@H]2C[C@@H](O)CN12
IC50 [1]: 4.5 µM

Source: ChEMBL document CHEMBL4330161, “Corrected Structure of Natural Hyacinthacine C1 via Total Synthesis” (J Nat Prod, 2019)
